Reference: patent US4301313A, “Halogenated ethynyl biphenyls” (Eli-Lilly and Company, priority 1974, dated 1981)
Several values for one entry are separate records, joined by “and”; a condition that tells them apart may be missing. Equal entries are not always repeated.

Columns and labels:
[1] = ultraviolet-induced erythema blocking test, oral (modified Winder method); format: in vivo, guinea pig (male albino); conditions: Cavia porcellus, guinea pig, weighted scores 1.0-2.5 h after UV, dose which provides 50% inhibition
Experimental: The compounds of the present invention were evaluated for anti-inflammatoryactivity by the ultraviolet-induced erythema blocking test. The test procedures were a modification of the Winder method (Winder, C. V.; Wax, J.; Burr, V.; Been, M.; and Posiere, C. E.: A Study of Pharmacological Influences on Ultraviolet Erythema in Guinea Pigs. Arch. Int. Pharmacodyn. 116: 261, 1958). Male albino guinea pigs weighing 240-300 gm. were used. The hair on the back was clipped and chemically depilated 15-18 hours before each experiment. The animals were fasted overnight, and on the day of the experiment, were randomized and placed in clear plastic partitioned holders 10×20 cm. wide and 15 cm. high.
The compounds to be tested were suspended in 1% methyl cellulose in water, utilizing a tissue homogenizer. The suspensions were administered orally in a volume of 2.0 ml./kg. of body weight. Control animals received an equal amount of the vehicle.
The source of ultraviolet light was a Hanovia lamp (Kromayer-Model 10). A notebook reinforcement ring was placed upon the lens of the lamp to provide an area of contrast for grading purposes. The lens was then placed in contact with the skin of the guinea pig's back. Exposure time to UV was for a period of 4 seconds. Beginning one hour after exposure and thereafter at half-hour intervals for another 11/2 hours, the degree of resulting erythema was graded by an arbitrary scoring system based upon the degree of contrast and redness formed. Anti-inflammatory agents delay the development of the erythema and have their greatest effect at the initial grading periods. The scores were, therefore, weighted by factors of 4, 3, 2, and 1 at the 1.0, 1.5, 2.0, and 2.5 hour scoring times, respectively. The erythema was graded as follows:
Total scores from each treatment group of four guinea pigs were compared to the scores of the control group. The percent inhibition was calculated as follows: [formula] In the case of compounds showing inhibition, retesting was carried out at a plurality of doses to enable calculation of an ED50 for each such compound. "ED50 " designates that dose which provides 50% inhibition. Calculation of the ED50 was either by a standard linear regression method or by estimation from a dose-response curve of three or more points. The compounds so tested and their ED50 s were as follows: […]

[2] = carrageenin induced test, compound administered about 20 hours prior; format: in vivo; conditions: rat, dose 10 (unit not given), about 20 hours prior to test
Experimental: Representative compounds were also evaluated for anti-inflammatory activity in the test method described by C. A. Winter at 111 Proc. Soc. Exp. Biol. Med., 544 (1962). In this method, inflammation is created by injecting carrageenin into the hind paw of rats. Test compounds are administered prior to injection to determine percent inhibition of the subsequent inflammation, in comparison with control animals.
Each of 4-biphenylylacetylene and (4-(2-fluorophenyl)phenyl)acetylene was evaluated again in the carrageenin induced test method reported in Examples 60-80. However, in these tests, the compound was administered about 20 hours prior to the test procedures.

[3] = analgesic activity, acetic acid-induced writhing; format: in vivo, mouse (albino male); conditions: mouse, p.o., dose reducing writhing frequency by 50%; 30, 90, 180 minutes after administration
Experimental: Representative compounds were also evaluated for analgesic activity. The evaluation was conducted by using acetic acid-induced writhing in mice as the pain model. Clinically effective analgesis are effective when tested in this model: see Koster et al., "Acetic Acid for Analgesic Screening," 18 Fed. Proc. 412 (1959).
In a method similar to that reported by Koster et al., standard strain albino male mice weighing 20-22 grams were fasted overnight. The respective compound or vehicle (as control) was administered by gastric lavage (p.o.). Each compound was administered in an aqueous suspension of 1% methylcellulose in water. […] At 30, 90, and 180 minutes after administration, writhing was induced by the intraperitoneal administration of 55 mg./kg. of acetic acid (0.55%). Each treatment group consisted of 5 mice and separate groups were examined at each observation time. The total number of writhes for the treatment group were counted in a 10-minute observation period starting 5 minutes after the acetic acid administration. The treatment totals were compared to controls and a percent inhibition calculated as follows: [formula] […] An ED50, which represented the dose that would reduce the writhing frequency by 50%, was estimated from a dose-reponse curve of three or more points. A dose range was reported if only two points were availale for the dose response curve and they bracketed the 50% level. If data was available at 100 mg./kg., only, then the estimated ED50 was reported simply as less than 100 (<100).

C#Cc1ccc(-c2ccccc2F)cc1 [(4-(2-fluorophenyl)phenyl)acetylene]
ED50 [1]: 0.05 mg/kg
% Inhibition [2]: 42% and 60%
Estimated ED50 [3]: 20 mg/kg
